{"source": "ChEMBL document CHEMBL4819126", "about": "“Enantiomeric profiling of a chiral benzothiazole necroptosis inhibitor” (Bioorg Med Chem Lett, 2021)", "key": {"U-937": {"tested_on": "U-937", "test": "Anti-necroptotic activity against TNFalph/Z-VAD-FMK-induced human U-937 cells assessed as cell viability measured after 19 to 21 hrs by CellTiter-Glo luminescent cell viability assay", "type": "functional, cell-based"}, "L929 [1]": {"tested_on": "L929", "test": "Anti-necroptotic activity against TNFalph/Z-VAD-FMK-induced mouse L929 cells assessed as cell viability measured after 19 to 21 hrs by CellTiter-Glo luminescent cell viability assay", "type": "functional, cell-based"}, "HT-29 [2]": {"tested_on": "HT-29", "test": "Anti-necroptotic activity in human HT-29 cells assessed as inhibition of TSZ induced necroptosis at 2.5 uM measured after 12 hrs", "type": "functional, cell-based"}, "[3]": {"target": "T1, Receptor-interacting serine/threonine-protein kinase 1 (Mus musculus) (UniProt Q60855)", "T1 sequence (whole entry)": "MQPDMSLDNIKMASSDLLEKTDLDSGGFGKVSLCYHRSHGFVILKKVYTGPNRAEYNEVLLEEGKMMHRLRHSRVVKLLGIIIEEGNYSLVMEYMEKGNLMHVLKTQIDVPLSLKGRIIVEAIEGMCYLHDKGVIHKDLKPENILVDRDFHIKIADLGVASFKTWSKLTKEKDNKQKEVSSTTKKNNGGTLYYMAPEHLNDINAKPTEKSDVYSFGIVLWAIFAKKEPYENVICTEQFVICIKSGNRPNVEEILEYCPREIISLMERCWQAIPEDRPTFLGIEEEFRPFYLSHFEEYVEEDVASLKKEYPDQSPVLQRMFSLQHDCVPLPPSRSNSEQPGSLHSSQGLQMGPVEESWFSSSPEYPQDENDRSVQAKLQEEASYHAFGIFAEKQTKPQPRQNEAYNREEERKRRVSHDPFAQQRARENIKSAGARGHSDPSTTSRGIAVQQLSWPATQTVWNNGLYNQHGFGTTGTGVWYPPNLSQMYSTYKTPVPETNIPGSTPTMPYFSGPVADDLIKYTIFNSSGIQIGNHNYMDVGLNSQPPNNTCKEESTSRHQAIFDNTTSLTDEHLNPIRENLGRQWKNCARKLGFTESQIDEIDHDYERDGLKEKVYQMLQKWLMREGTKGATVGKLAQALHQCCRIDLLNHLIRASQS", "test": "Inhibition of RIPK1 in mouse L929 cells assessed as TZ-induced RIPK3 phosphorylation at 1 uM measured upto 4 hrs by Western blot analysis", "type": "cell-based", "conditions": "time hrs <=4"}, "HT-29 [4]": {"tested_on": "HT-29", "test": "Anti-necroptotic activity in human HT-29 cells assessed as inhibition of TNFalpha/TS induced necroptosis uM measured after 36 hrs", "type": "functional, cell-based"}, "[5]": {"target": "T1, Receptor-interacting serine/threonine-protein kinase 1 (Mus musculus)", "test": "Inhibition of RIPK1 in mouse L929 cells assessed as TZ-induced MLKL phosphorylation at 1 uM measured upto 4 hrs by Western blot analysis", "type": "cell-based", "conditions": "time hrs <=4"}, "[6]": {"target": "Receptor-interacting serine/threonine-protein kinase 3 (Homo sapiens, UniProt Q9Y572)", "sequence (Q9Y572 whole entry)": "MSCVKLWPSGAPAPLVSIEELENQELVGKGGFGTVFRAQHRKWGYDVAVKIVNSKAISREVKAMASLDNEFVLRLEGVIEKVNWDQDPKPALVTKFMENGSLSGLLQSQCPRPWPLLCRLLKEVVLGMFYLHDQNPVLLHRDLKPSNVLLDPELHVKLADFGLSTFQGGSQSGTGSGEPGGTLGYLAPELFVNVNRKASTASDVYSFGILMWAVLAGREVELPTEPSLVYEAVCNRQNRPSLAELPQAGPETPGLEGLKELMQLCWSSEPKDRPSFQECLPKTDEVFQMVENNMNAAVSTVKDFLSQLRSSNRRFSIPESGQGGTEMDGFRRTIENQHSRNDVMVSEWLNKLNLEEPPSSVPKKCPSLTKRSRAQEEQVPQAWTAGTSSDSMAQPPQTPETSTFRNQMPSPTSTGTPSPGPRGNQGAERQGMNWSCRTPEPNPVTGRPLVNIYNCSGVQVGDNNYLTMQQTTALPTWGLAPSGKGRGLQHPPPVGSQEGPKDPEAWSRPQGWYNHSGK", "test": "Inhibition of human wild type RIPK3 (M1 to Q307) expressed in bacterial system by kinomescan assay"}, "[7]": {"target": "T2, Receptor-interacting serine/threonine-protein kinase 1 (Homo sapiens, UniProt Q13546)", "T2 sequence (Q13546 whole entry)": "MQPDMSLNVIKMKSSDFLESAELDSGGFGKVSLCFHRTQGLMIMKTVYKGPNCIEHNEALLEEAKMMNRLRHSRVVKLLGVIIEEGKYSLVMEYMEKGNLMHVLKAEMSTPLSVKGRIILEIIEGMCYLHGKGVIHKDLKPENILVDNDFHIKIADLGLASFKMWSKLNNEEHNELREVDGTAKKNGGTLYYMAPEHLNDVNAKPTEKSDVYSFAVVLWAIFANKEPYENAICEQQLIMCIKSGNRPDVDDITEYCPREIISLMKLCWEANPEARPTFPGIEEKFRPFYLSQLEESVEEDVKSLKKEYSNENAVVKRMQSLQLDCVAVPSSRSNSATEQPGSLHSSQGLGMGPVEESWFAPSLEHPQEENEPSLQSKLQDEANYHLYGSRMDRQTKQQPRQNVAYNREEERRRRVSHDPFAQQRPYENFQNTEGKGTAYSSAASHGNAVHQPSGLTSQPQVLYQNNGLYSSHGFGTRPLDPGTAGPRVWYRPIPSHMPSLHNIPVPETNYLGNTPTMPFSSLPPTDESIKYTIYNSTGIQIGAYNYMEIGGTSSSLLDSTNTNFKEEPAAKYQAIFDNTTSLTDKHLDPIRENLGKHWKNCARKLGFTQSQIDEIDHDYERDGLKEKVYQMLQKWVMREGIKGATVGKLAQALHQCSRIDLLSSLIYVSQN", "test": "Inhibition of human wild type RIPK1 (M1 to K305) expressed in bacterial system by kinomescan assay"}, "L929 [8]": {"tested_on": "L929", "test": "Anti-necroptotic activity in mouse L929 cells assessed as inhibition of mTNFalpha-induced necroptosis measured after 9 hrs", "type": "functional"}, "HT-29 [9]": {"tested_on": "HT-29", "test": "Anti-necroptotic activity in human HT-29 cells assessed as inhibition of TNFalpha/Z-VAD-fmk (TCZ)-induced necroptosis pretreated for 8 to 12 hrs", "type": "functional, cell-based"}, "[10]": {"target": "T3, Receptor-interacting serine/threonine-protein kinase 1 (Homo sapiens) (UniProt Q13546)", "T3 sequence (whole entry)": "T2 sequence (Q13546 whole entry)", "test": "Inhibition of RIPK1 in human HT-29 cells assessed as inhibition of TSZ-induced RIPK1 phosphorylation at 1 uM measured upto 4 hrs by Western blot analysis", "type": "cell-based", "conditions": "time hrs <=4"}, "L929 [11]": {"tested_on": "L929", "test": "Anti-necroptotic activity in mouse L929 cells assessed as inhibition of TZ-induced necroptosis measured after 9 hrs", "type": "functional, cell-based"}, "[12]": {"target": "T3, Receptor-interacting serine/threonine-protein kinase 1 (Homo sapiens)", "test": "Inhibition of RIPK1 in human HT-29 cells assessed as inhibition of TSZ-induced RIPK3 phosphorylation at 1 uM measured upto 4 hrs by Western blot analysis", "type": "cell-based", "conditions": "time hrs <=4"}, "[13]": {"target": "T3, Receptor-interacting serine/threonine-protein kinase 1 (Homo sapiens)", "test": "Inhibition of RIPK1 in human HT-29 cells assessed as inhibition of TSZ-induced MLKL phosphorylation at 1 uM measured upto 4 hrs by Western blot analysis", "type": "cell-based", "conditions": "time hrs <=4"}, "HT-29 [14]": {"tested_on": "HT-29", "test": "Anti-necroptotic activity in human HT-29 cells assessed as inhibition of TSZ induced necroptosis at 0.25 uM measured after 12 hrs", "type": "functional", "design": "scale not given: the % may be the effect or the level left"}, "HT-29 [15]": {"tested_on": "HT-29", "test": "Anti-necroptotic activity in human HT-29 cells assessed as inhibition of TSZ induced necroptosis measured after 12 hrs", "type": "functional, cell-based", "conditions": "dose 0.025-25 µM"}}, "note": "Calls of active or inactive are those of the source. The rule behind the calls is not given here."}
{"smiles": "CC(C)(C)C(=O)N1N=CC[C@@H]1c1ccccc1", "values": [{"measurement": "IC50", "setting": "U-937", "result": "> 10000", "unit": "nM"}]}
{"smiles": "CC(C)(C)C(=O)N1N=CC[C@H]1c1ccccc1", "values": [{"measurement": "IC50", "setting": "L929 [1]", "result": 3.1, "unit": "nM"}]}
{"smiles": "CC1(C)C[C@H]1C(=O)Nc1nc2ccc(Oc3ccc(F)c(NC(=O)Cc4cccc(C(F)(F)F)c4)c3)cc2s1", "values": [{"measurement": "inhibition", "setting": "HT-29 [2]", "result": "Active"}, {"measurement": "inhibition", "setting": "[3]", "result": "Active"}, {"measurement": "Activity", "setting": "HT-29 [4]", "result": "Dose-Dependent Effect"}, {"measurement": "inhibition", "setting": "[5]", "result": "Active"}, {"measurement": "Kd", "setting": "[6]", "result": 650, "unit": "nM"}, {"measurement": "Kd", "setting": "[7]", "result": 1700, "unit": "nM"}, {"measurement": "inhibition (INH)", "setting": "L929 [8]", "result": 100, "unit": "%"}, {"measurement": "EC50", "setting": "HT-29 [9]", "result": 290, "unit": "nM"}, {"measurement": "inhibition", "setting": "[10]", "result": "Active"}, {"measurement": "Activity", "setting": "L929 [11]", "result": "Dose-Dependent Effect"}, {"measurement": "inhibition", "setting": "[12]", "result": "Active"}, {"measurement": "inhibition", "setting": "[13]", "result": "Active"}]}
{"smiles": "CC1(C)C[C@@H]1C(=O)Nc1nc2ccc(Oc3ccc(F)c(NC(=O)Cc4cccc(C(F)(F)F)c4)c3)cc2s1", "values": [{"measurement": "inhibition", "setting": "HT-29 [2]", "result": "Active"}, {"measurement": "inhibition", "setting": "[3]", "result": "Active"}, {"measurement": "Activity", "setting": "HT-29 [4]", "result": "Dose-Dependent Effect"}, {"measurement": "inhibition", "setting": "[5]", "result": "Active"}, {"measurement": "Kd", "setting": "[6]", "result": 145, "unit": "nM"}, {"measurement": "Kd", "setting": "[7]", "result": 430, "unit": "nM"}, {"measurement": "inhibition (INH)", "setting": "L929 [8]", "result": 100, "unit": "%"}, {"measurement": "EC50", "setting": "HT-29 [9]", "result": 150, "unit": "nM"}, {"measurement": "inhibition", "setting": "[10]", "result": "Active"}, {"measurement": "Activity", "setting": "HT-29 [14]", "result": 90, "unit": "%"}, {"measurement": "Activity", "setting": "L929 [11]", "result": "Dose-Dependent Effect"}, {"measurement": "inhibition", "setting": "[12]", "result": "Active"}, {"measurement": "inhibition", "setting": "[13]", "result": "Active"}]}
{"smiles": "CC1(C)CC1C(=O)Nc1nc2ccc(Oc3ccc(F)c(NC(=O)Cc4cccc(C(F)(F)F)c4)c3)cc2s1", "note": "(racemic)", "values": [{"measurement": "Activity", "setting": "HT-29 [15]", "result": "Dose-Dependent Effect"}, {"measurement": "inhibition", "setting": "[3]", "result": 100, "unit": "%"}, {"measurement": "Activity", "setting": "HT-29 [4]", "result": "Dose-Dependent Effect"}, {"measurement": "inhibition", "setting": "[5]", "result": 100, "unit": "%"}, {"measurement": "Kd", "setting": "[6]", "result": 270, "unit": "nM"}, {"measurement": "Kd", "setting": "[7]", "result": 480, "unit": "nM"}, {"measurement": "inhibition (INH)", "setting": "L929 [8]", "result": 100, "unit": "%"}, {"measurement": "EC50", "setting": "HT-29 [9]", "result": 310, "unit": "nM"}, {"measurement": "inhibition", "setting": "[10]", "result": "Active"}, {"measurement": "Activity", "setting": "L929 [11]", "result": "Dose-Dependent Effect"}, {"measurement": "inhibition", "setting": "[12]", "result": "Active"}, {"measurement": "inhibition", "setting": "[13]", "result": "Active"}]}
{"smiles": "CN1C(=O)[C@@H](NC(=O)c2cc(Cc3ccccc3)on2)COc2ccccc21", "values": [{"measurement": "IC50", "setting": "U-937", "result": 10, "unit": "nM"}]}
{"smiles": "CN1C(=O)[C@H](NC(=O)c2cc(Cc3ccccc3)on2)COc2ccccc21", "values": [{"measurement": "IC50", "setting": "U-937", "result": "> 10000", "unit": "nM"}]}
